The values that follow come from publication PMC9736157 (Molecules, 2022).

The term IC50 denotes the concentration at which inhibition is half-maximal.

The target in test [1] is T1, B-RAF (V600E) (Homo sapiens, UniProt P15056, V600E).
T1 construct: purchased BPS Bioscience
In words: BRAF^V600E inhibition assay (B-RAF (V600E) Kinase Assay Kit, Kinase-Glo MAX). The test is classed as biochemical. The note with it: isolated BRAF^V600E, ATP 10 μM, 30 °C, 45 min; three experiments in duplicate; read-out: BRAF (V600E) Kinase Activity IC50 (nM ± SEM). As for the experimental part:
In a 96-well plate, the different inhibitor solutions in DMSO were mixed with Buffer, ATP (10 μM) and Raf substrate. […] After a 15 min delay to equilibrate plate temperature, 50 μL of Kinase-Glo Max was added in each well, and the luminescence was measured according to supplier’s instruction. The results, reported as IC50 ± S.E.M., were calculated with GrapPad Prism 7 and derive from three different experiments run in duplicate.

The subject of test [2] is A375 melanoma cell line. In words: Antiproliferative activity, CellTiter-Glo, A375. The note with it: Homo sapiens, A-375, A375, 72 h. The test is classed as cell-based. As to the method:
Based on the previous preliminary tests, we sought to investigate the ability of synthesized compounds 5–15 and reference 1 in inhibiting the proliferation of BRAF^V600E mutant cancer cells. A first screening was conducted in A375 melanoma cell lines (Table 1, Figure S2). Encorafenib was employed for comparison.
(§1) The ability of compounds 5, 10, 11, 15–selected based on their chemical diversity–to inhibit cell proliferation was then tested both in A375 and in Colo205 cancer cell lines. […] P5B was obtained by joining the BRAF inhibitor BI 882370 to pomalidomide through a five PEG unit spacer (Figure S3). In compound P5B, the linker length was of 17 atoms, the same length of the spacer used to generate our compound 10. A375 and Colo205 cells were treated for 72 h with compounds 5, 10, 11, 15, and P5B, and the antiproliferative activity was measured by a luminescent ATP-based assay, which determines the number of viable cells based on their metabolic activity. […] However, P5B was more efficient in inhibiting tumor cell viability in comparison with the other selected compounds.
(§2) Cell viability was evaluated by means of CellTiter-Glo Luminescent Assay (Promega), which allows users to measure the ATP in the cell supernatant. The assay was performed according to manufacturer’s instructions. In brief, 4.10^3 A375 or Colo205 were seeded into 96-well plates and allowed to adhere at the wall overnight. Cells were treated for 72 h with BRAF inhibitor compounds. Then, 90 µL of the cell culture medium was transferred in a white 96-well plate, to which 10 µL of CellTiter-Glo was added before measurement of luminescence. Luminescence was measured by the SPARK M10 (Tecan, Männedorf, Switzerland) plate reader.
Background: Cellular ATP, detected with luciferase, serves as a proxy for viable cell number.

The subject of test [3] is Colo205 cell line. In words: Antiproliferative activity, CellTiter-Glo, Colo205. The test is classed as cell-based. The note with it: Homo sapiens, COLO 205; Colo205, 72 h (Figure 6b); read-out: Antiproliferative activity IC50 (nM ± SEM). As to the method: as §1, §2
[4] abbreviates: first screening (Table 1), read-out: Antiproliferative Activity IC50 ± SEM.
[5] abbreviates: second set of experiments (Figure 6a), read-out: Antiproliferative activity IC50 (nM ± SEM).

Read-outs that look alike come from different tables or passages of the source.

T1 sequence (P15056 whole entry V600E): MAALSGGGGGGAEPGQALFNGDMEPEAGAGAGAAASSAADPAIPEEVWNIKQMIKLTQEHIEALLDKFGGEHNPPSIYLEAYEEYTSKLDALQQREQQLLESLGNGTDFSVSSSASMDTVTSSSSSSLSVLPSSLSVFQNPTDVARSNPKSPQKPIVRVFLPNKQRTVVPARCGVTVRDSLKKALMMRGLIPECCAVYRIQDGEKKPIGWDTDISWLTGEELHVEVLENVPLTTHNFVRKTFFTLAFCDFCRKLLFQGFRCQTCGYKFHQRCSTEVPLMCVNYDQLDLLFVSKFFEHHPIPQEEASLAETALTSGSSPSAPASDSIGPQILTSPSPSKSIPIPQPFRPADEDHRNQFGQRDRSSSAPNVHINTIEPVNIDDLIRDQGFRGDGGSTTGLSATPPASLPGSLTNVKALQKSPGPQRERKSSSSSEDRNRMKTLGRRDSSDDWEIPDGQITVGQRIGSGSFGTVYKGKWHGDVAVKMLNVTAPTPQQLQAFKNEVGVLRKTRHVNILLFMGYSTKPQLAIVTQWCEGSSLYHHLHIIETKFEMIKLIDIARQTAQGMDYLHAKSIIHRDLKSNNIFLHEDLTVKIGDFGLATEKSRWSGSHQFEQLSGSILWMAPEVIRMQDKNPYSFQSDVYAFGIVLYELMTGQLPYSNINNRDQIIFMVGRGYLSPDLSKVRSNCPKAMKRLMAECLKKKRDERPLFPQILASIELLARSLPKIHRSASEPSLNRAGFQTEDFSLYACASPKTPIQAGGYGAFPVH

As for `CC(C)n1cc(-c2ccnc(NC[C@H](C)NC(=O)CCCNc3cccc4c3C(=O)N(C3CCC(=O)NC3=O)C4=O)n2)c(-c2cc(Cl)cc(NS(C)(=O)=O)c2F)n1` (stereo partly drawn) [Compound 5, N-((S)-1-((4-(3-(5-chloro-2-fluoro-3-(methylsulfonamido)phenyl)-1-isopropyl-1H-pyrazol-4-yl)pyrimidin-2-yl)amino)propan-2-yl)-4-((2-(2,6-dioxopiperidin-3-yl)-1,3-dioxoisoindolin-4-yl)amino)butanamide], the concentration for half-maximal inhibition (IC50) in test [1] was found to be 61 ± 10 nM; in test [2] (setting [4]) it was 2740 ± 71 nM; in test [2] (setting [5]), 1320 ± 304 nM; in test [3], 280 ± 24 nM.
In the case of `CC(C)n1cc(-c2ccnc(NC[C@H](C)NC(=O)CCOCCNc3cccc4c3C(=O)N(C3CCC(=O)NC3=O)C4=O)n2)c(-c2cc(Cl)cc(NS(C)(=O)=O)c2F)n1` (stereo partly drawn) [Compound 6, N-((S)-1-((4-(3-(5-chloro-2-fluoro-3-(methylsulfonamido)phenyl)-1-isopropyl-1H-pyrazol-4-yl)pyrimidin-2-yl)amino)propan-2-yl)-3-(2-((2-(2,6-dioxopiperidin-3-yl)-1,3-dioxoisoindolin-4-yl)amino)ethoxy)propanamide], the figures for the IC50 in test [1] and in test [2] (setting [4]) were 52 ± 12 nM and 406.1 ± 2.4 nM, respectively.
In the case of `CC(C)n1cc(-c2ccnc(NC[C@H](C)NC(=O)CCOCCOCCNc3cccc4c3C(=O)N(C3CCC(=O)NC3=O)C4=O)n2)c(-c2cc(Cl)cc(NS(C)(=O)=O)c2F)n1` (stereo partly drawn) [Compound 7, N-((S)-1-((4-(3-(5-chloro-2-fluoro-3-(methylsulfonamido)phenyl)-1-isopropyl-1H-pyrazol-4-yl)pyrimidin-2-yl)amino)propan-2-yl)-3-(2-(2-((2-(2,6-dioxopiperidin-3-yl)-1,3-dioxoisoindolin-4-yl)amino)ethoxy)ethoxy)propanamide], the values for the half-inhibitory concentration (IC50) in test [1] and in test [2] (setting [4]) were 66 ± 15 nM and 520 ± 80.5 nM, respectively.
In the case of `CC(C)n1cc(-c2ccnc(NC[C@H](C)NC(=O)CCOCCOCCOCCOCCNc3cccc4c3C(=O)N(C3CCC(=O)NC3=O)C4=O)n2)c(-c2cc(Cl)cc(NS(C)(=O)=O)c2F)n1` (stereo partly drawn) [Compound 9, N-((S)-1-((4-(3-(5-chloro-2-fluoro-3-(methylsulfonamido)phenyl)-1-isopropyl-1H-pyrazol-4-yl)pyrimidin-2-yl)amino)propan-2-yl)-1-((2-(2,6-dioxopiperidin-3-yl)-1,3-dioxoisoindolin-4-yl)amino)-3,6,9,12-tetraoxapentadecan-15-amide], the results for the IC50 in test [1] and in test [2] (setting [4]) were 67 ± 16 nM and 2000 ± 31.8 nM, respectively.
Taken in the same sequence, the figures for `CC(C)n1cc(-c2ccnc(NC[C@H](C)NC(=O)CCOCCOCCn3cc(COCCC(=O)Nc4cccc5c4C(=O)N(C4CCC(=O)NC4=O)C5=O)nn3)n2)c(-c2cc(Cl)cc(NS(C)(=O)=O)c2F)n1` (stereo partly drawn) [Compound 12, N-((S)-1-((4-(3-(5-chloro-2-fluoro-3-(methylsulfonamido)phenyl)-1-isopropyl-1H-pyrazol-4-yl)pyrimidin-2-yl)amino)propan-2-yl)-3-(2-(2-(4-((3-((2-(2,6-dioxopiperidin-3-yl)-1,3-dioxoisoindolin-4-yl)amino)-3-oxopropoxy)methyl)-1H-1,2,3-triazol-1-yl)ethoxy)ethoxy)propanamide] were 40 ± 4 nM and 732 ± 16 nM.
The corresponding values for `CC(C)n1cc(-c2ccnc(NC[C@H](C)NC(=O)CCOCCOCCn3cc(COCCOCCNc4cccc5c4C(=O)N(C4CCC(=O)NC4=O)C5=O)nn3)n2)c(-c2cc(Cl)cc(NS(C)(=O)=O)c2F)n1` (stereo partly shown) [Compound 13] are 58 ± 19 nM and 4100 ± 71.5 nM.
As to `CC(C)n1cc(-c2ccnc(NC[C@H](C)NC(=O)CCOCCOCCOCC(=O)Nc3cccc4c3CN(C3CCC(=O)NC3=O)C4=O)n2)c(-c2cc(Cl)cc(NS(C)(=O)=O)c2F)n1` (stereo partly drawn) [Compound 14, N-((S)-1-((4-(3-(5-chloro-2-fluoro-3-(methylsulfonamido)phenyl)-1-isopropyl-1H-pyrazol-4-yl)pyrimidin-2-yl)amino)propan-2-yl)-3-(2-(2-(2-((2-(2,6-dioxopiperidin-3-yl)-1-oxoisoindolin-4-yl)amino)-2-oxoethoxy)ethoxy)ethoxy)propenamide], the half-inhibitory concentration (IC50) in test [1] was 88 ± 17 nM; in test [2] (setting [4]), 1046 ± 0.75 nM.
On to `Cc1ncsc1-c1ccc(CNC(=O)[C@@H]2C[C@@H](O)CN2C(=O)[C@@H](NC(=O)COCCOCCOCCC(=O)N[C@@H](C)CNc2nccc(-c3cn(C(C)C)nc3-c3cc(Cl)cc(NS(C)(=O)=O)c3F)n2)C(C)(C)C)cc1` [Compound 15, (2S,4R)-1-((2S,17S)-2-(tert-butyl)-18-((4-(3-(5-chloro-2-fluoro-3-(methylsulfonamido)phenyl)-1-isopropyl-1H-pyrazol-4-yl)pyrimidin-2-yl)amino)-17-methyl-4,15-dioxo-6,9,12-trioxa-3,16-diazaoctadecanoyl)-4-hydroxy-N-(4-(4-methylthiazol-5-yl)benzyl)pyrrolidine-2-carboxamide], for which the half-maximal inhibitory concentration (IC50) in test [1] is 78 ± 9 nM; in test [2] (setting [4]) it was 3380 ± 172 nM; in test [2] (setting [5]) it was 3830 ± 784 nM; in test [3] it was 1230 ± 543 nM.
Regarding `COCCOCCOCCOCCC(=O)N[C@@H](C)CNc1nccc(-c2cn(C(C)C)nc2-c2cc(Cl)cc(NS(C)(=O)=O)c2F)n1` [Compound 54, (S)-N-(1-((4-(3-(5-chloro-2-fluoro-3-(methylsulfonamido)phenyl)-1-isopropyl-1H-pyrazol-4-yl)pyrimidin-2-yl)amino)propan-2-yl)-2,5,8,11-tetraoxatetradecan-14-amide], the IC50 in test [1] is 80 ± 7 nM.
As to `COC(=O)N[C@@H](C)CNc1nccc(-c2cn(C(C)C)nc2-c2cc(Cl)cc(NS(C)(=O)=O)c2F)n1` [encorafenib (1), encorafenib, reference compound], in test [2] (setting [4]), the half-maximal inhibitory concentration (IC50) is less than 50 nM.
